Assays:
MC38_sgStk11 tumor = test: Anti-tumor efficacy in murine subcutaneous MC38_sgStk11 tumor model; format: in vivo, Mus musculus; details: for T/C / TGI %: day 11
Procedure: Summary: An in vivo anti-tumor efficacy of double combination treatment of Anti-PD1 and HDAC1,2-selective inhibitor in a murine subcutaneous MC38_sgStk11 tumor model in […] mice was performed.
96 mice plus 39 spare mice of the species: Mus musculus: strain: C57BL/6; age 8-10 weeks; sex: female; and body weight: 16.9-20.0 g
The MC38_sgStk11 tumor cells were maintained in vitro as a monolayer culture in DMEM+2 mM glutamine supplemented with about 10% heat inactivated fetal bovine serum, about 100 U/ml penicillin and 100 μg/ml streptomycin at about 37° C. in an atmosphere of about 5% CO2 in air. The tumor cells were routinely sub-cultured twice weekly by trypsin-EDTA treatment. The cells growing in an exponential growth phase were harvested and counted for tumor inoculation.
Each mouse was inoculated subcutaneously at the right upper flank with MC38_sgStk11 tumor cells (0.5×106) in 0.1 ml of PBS for tumor development. Treatments were started on day 4 after tumor inoculation when the average tumor size reached 52 mm^3. The animals were assigned into groups according to a sorting standard operating procedures based upon their tumor volumes. Each group consisted of 8 tumor bearing mice. The testing article was administrated to the mice according to the predetermined regimen as shown in the experimental design table (Table 1-1).
All the procedures related to animal handling, care and the treatment in the study were performed according to the guidelines approved by the Institutional Animal Care and Use Committee (IACUC) of vendor following the guidance of the Association for Assessment and Accreditation of Laboratory Animal Care (AAALAC). At the time of routine monitoring, the animals were daily checked for any effects of tumor growth and treatments on normal behavior such as mobility, food and water consumption, body weight gain/loss (body weights were measured three times per week), eye/hair matting and any other abnormal effect as stated in the protocol. Death and observed clinical signs were recorded on the basis of the numbers of animals within each subset.
A primary endpoint was to see if the tumor growth could be delayed or mice could be cured. Tumor size was measured three times per week in two dimensions using a caliper, and the volume was expressed in mm3 using the formula: V=0.5 a×b2 where a and b are the long and short diameters of the tumor, respectively. The T/C value (in percent) is an indication of antitumor effectiveness; T and C are the mean volume of the treated and control groups, respectively, on a given day. TGI is calculated for each group using the formula: TGI (%)=[1−(Ti−T0)/(Vi−V0)]×100; Ti is the average tumor volume of a treatment group on a given day, T0 is the average tumor volume of the treatment group on the day of treatment start, Vi is the average tumor volume of the vehicle control group on the same day with Ti, and V0 is the average tumor volume of the vehicle group on the day of treatment start.
Statistical analysis of difference in the tumor volume among the groups were conducted on the data obtained at the best therapeutic time point at the day 11 after the start of treatment. A one-way ANOVA was performed for comparisons between groups. The survival analysis between groups was carried out with Kaplan-Meier test. p<0.05 was considered to be statistically significant.

CYP3A4 = CYP3A4 (Homo sapiens, UniProt P08684); test: CYP3A4 (Table 5); format: in vitro ADME; details: test not described
Chain of CYP3A4 (P08684 whole entry): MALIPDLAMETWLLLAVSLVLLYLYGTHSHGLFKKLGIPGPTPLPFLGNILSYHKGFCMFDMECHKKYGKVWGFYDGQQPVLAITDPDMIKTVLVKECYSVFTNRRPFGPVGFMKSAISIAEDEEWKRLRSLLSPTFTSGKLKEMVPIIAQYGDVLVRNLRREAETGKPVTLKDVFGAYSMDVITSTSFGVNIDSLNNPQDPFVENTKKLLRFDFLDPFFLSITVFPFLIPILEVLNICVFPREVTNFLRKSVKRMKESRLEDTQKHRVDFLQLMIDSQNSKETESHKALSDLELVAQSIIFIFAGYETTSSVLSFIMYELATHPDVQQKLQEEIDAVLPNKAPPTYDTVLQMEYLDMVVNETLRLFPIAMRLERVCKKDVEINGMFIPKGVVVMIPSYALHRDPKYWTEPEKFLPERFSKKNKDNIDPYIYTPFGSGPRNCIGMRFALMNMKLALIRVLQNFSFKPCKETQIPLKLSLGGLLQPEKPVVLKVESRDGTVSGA

[1] = Gr 5: Compound I 75 mg/kg PO QD + Anti-IgG2a 10 mg/kg IP BIW
[2] = Gr 6: Compound I 150 mg/kg D0-D4, 100 mg/kg D5-D48 PO QD + Anti-IgG2a 10 mg/kg IP BIW

## C[S@@](=N)(=O)c1ccc(C(=O)Nc2cc(-c3ccc(F)cc3)ccc2N)cc1 [Compound I, (R)—N-(4-amino-4′-fluoro-[1,1′-biphenyl]-3-yl)-4-(S-methylsulfonimidoyl)benzamide]
MC38_sgStk11 tumor; [1]
  PR (partial regression): 0.0%
  T/C: 29.7%
  TGI %: 72.1%
MC38_sgStk11 tumor; Gr 5: Compound I 75 mg/kg PO QD + Anti-IgG2a 10 mg/kg IP BIW, day 0 of treatment
  Tumor Volume: 52 ± 2 mm^3
MC38_sgStk11 tumor; Gr 5: Compound I 75 mg/kg PO QD + Anti-IgG2a 10 mg/kg IP BIW, day 2 of treatment
  Tumor Volume: 218 ± 12 mm^3
MC38_sgStk11 tumor; Gr 5: Compound I 75 mg/kg PO QD + Anti-IgG2a 10 mg/kg IP BIW, day 4 of treatment
  Tumor Volume: 485 ± 37 mm^3
MC38_sgStk11 tumor; Gr 5: Compound I 75 mg/kg PO QD + Anti-IgG2a 10 mg/kg IP BIW, day 7 of treatment
  Tumor Volume: 576 ± 45 mm^3
MC38_sgStk11 tumor; Gr 5: Compound I 75 mg/kg PO QD + Anti-IgG2a 10 mg/kg IP BIW, day 9 of treatment
  Tumor Volume: 622 ± 44 mm^3
MC38_sgStk11 tumor; Gr 5: Compound I 75 mg/kg PO QD + Anti-IgG2a 10 mg/kg IP BIW, day 11 of treatment
  Tumor Volume: 632 ± 55 mm^3
MC38_sgStk11 tumor; Gr 5: Compound I 75 mg/kg PO QD + Anti-IgG2a 10 mg/kg IP BIW, day 14 of treatment
  Tumor Volume: 580 ± 85 mm^3
MC38_sgStk11 tumor; Gr 5: Compound I 75 mg/kg PO QD + Anti-IgG2a 10 mg/kg IP BIW, day 16 of treatment
  Tumor Volume: 557 ± 101 mm^3
MC38_sgStk11 tumor; Gr 5: Compound I 75 mg/kg PO QD + Anti-IgG2a 10 mg/kg IP BIW, day 18 of treatment
  Tumor Volume: 536 ± 109 mm^3
MC38_sgStk11 tumor; Gr 5: Compound I 75 mg/kg PO QD + Anti-IgG2a 10 mg/kg IP BIW, day 21 of treatment
  Tumor Volume: 514 ± 117 mm^3
MC38_sgStk11 tumor; Gr 5: Compound I 75 mg/kg PO QD + Anti-IgG2a 10 mg/kg IP BIW, day 23 of treatment
  Tumor Volume: 502 ± 138 mm^3
MC38_sgStk11 tumor; Gr 5: Compound I 75 mg/kg PO QD + Anti-IgG2a 10 mg/kg IP BIW, day 25 of treatment
  Tumor Volume: 477 ± 151 mm^3
MC38_sgStk11 tumor; Gr 5: Compound I 75 mg/kg PO QD + Anti-IgG2a 10 mg/kg IP BIW, day 28 of treatment
  Tumor Volume: 551 ± 171 mm^3
MC38_sgStk11 tumor; Gr 5: Compound I 75 mg/kg PO QD + Anti-IgG2a 10 mg/kg IP BIW, day 30 of treatment
  Tumor Volume: 815 ± 291 mm^3
MC38_sgStk11 tumor; Gr 5: Compound I 75 mg/kg PO QD + Anti-IgG2a 10 mg/kg IP BIW, day 32 of treatment
  Tumor Volume: 1001 ± 375 mm^3
MC38_sgStk11 tumor; Gr 5: Compound I 75 mg/kg PO QD + Anti-IgG2a 10 mg/kg IP BIW, day 34 of treatment
  Tumor Volume: 827 ± 268 mm^3
MC38_sgStk11 tumor; Gr 5: Compound I 75 mg/kg PO QD + Anti-IgG2a 10 mg/kg IP BIW, day 38 of treatment
  Tumor Volume: 14 mm^3
MC38_sgStk11 tumor; Gr 5: Compound I 75 mg/kg PO QD + Anti-IgG2a 10 mg/kg IP BIW, day 42 of treatment
  Tumor Volume: 13 mm^3
MC38_sgStk11 tumor; Gr 5: Compound I 75 mg/kg PO QD + Anti-IgG2a 10 mg/kg IP BIW, day 45 of treatment
  Tumor Volume: 6 mm^3
MC38_sgStk11 tumor; Gr 5: Compound I 75 mg/kg PO QD + Anti-IgG2a 10 mg/kg IP BIW, day 49 after start of treatment
  Tumor Volume: 0 mm^3
MC38_sgStk11 tumor; Gr 5: Compound I 75 mg/kg PO QD + Anti-IgG2a 10 mg/kg IP BIW, day 52 after start of treatment
  Tumor Volume: 0 mm^3
MC38_sgStk11 tumor; Gr 5: Compound I 75 mg/kg PO QD + Anti-IgG2a 10 mg/kg IP BIW, day 56 after start of treatment
  Tumor Volume: 0 mm^3
MC38_sgStk11 tumor; Gr 5: Compound I 75 mg/kg PO QD + Anti-IgG2a 10 mg/kg IP BIW, day 59 after start of treatment
  Tumor Volume: 0 mm^3
MC38_sgStk11 tumor; Gr 5: Compound I 75 mg/kg PO QD + Anti-IgG2a 10 mg/kg IP BIW, day 63 after start of treatment
  Tumor Volume: 0 mm^3
MC38_sgStk11 tumor; Gr 5: Compound I 75 mg/kg PO QD + Anti-IgG2a 10 mg/kg IP BIW, day 66 after start of treatment
  Tumor Volume: 0 mm^3
MC38_sgStk11 tumor; [2]
  CR (complete regression): 0.0%
  ORR (CR + PR): 0.0%
  PR (partial regression): 0.0%
  T/C: 41.2%
  TGI %: 60.2%
MC38_sgStk11 tumor; Gr 6: Compound I 150 mg/kg D0-D4, 100 mg/kg D5-D48 PO QD + Anti-IgG2a 10 mg/kg IP BIW, day 0 of treatment
  Tumor Volume: 52 ± 2 mm^3
MC38_sgStk11 tumor; Gr 6: Compound I 150 mg/kg D0-D4, 100 mg/kg D5-D48 PO QD + Anti-IgG2a 10 mg/kg IP BIW, day 2 of treatment
  Tumor Volume: 205 ± 14 mm^3
MC38_sgStk11 tumor; Gr 6: Compound I 150 mg/kg D0-D4, 100 mg/kg D5-D48 PO QD + Anti-IgG2a 10 mg/kg IP BIW, day 4 of treatment
  Tumor Volume: 450 ± 40 mm^3
MC38_sgStk11 tumor; Gr 6: Compound I 150 mg/kg D0-D4, 100 mg/kg D5-D48 PO QD + Anti-IgG2a 10 mg/kg IP BIW, day 7 of treatment
  Tumor Volume: 508 ± 40 mm^3
MC38_sgStk11 tumor; Gr 6: Compound I 150 mg/kg D0-D4, 100 mg/kg D5-D48 PO QD + Anti-IgG2a 10 mg/kg IP BIW, day 9 of treatment
  Tumor Volume: 636 ± 19 mm^3
MC38_sgStk11 tumor; Gr 6: Compound I 150 mg/kg D0-D4, 100 mg/kg D5-D48 PO QD + Anti-IgG2a 10 mg/kg IP BIW, day 11 of treatment
  Tumor Volume: 878 ± 66 mm^3
MC38_sgStk11 tumor; Gr 6: Compound I 150 mg/kg D0-D4, 100 mg/kg D5-D48 PO QD + Anti-IgG2a 10 mg/kg IP BIW, day 14 of treatment
  Tumor Volume: 1090 ± 167 mm^3
MC38_sgStk11 tumor; Gr 6: Compound I 150 mg/kg D0-D4, 100 mg/kg D5-D48 PO QD + Anti-IgG2a 10 mg/kg IP BIW, day 16 of treatment
  Tumor Volume: 1236 ± 211 mm^3
MC38_sgStk11 tumor; Gr 6: Compound I 150 mg/kg D0-D4, 100 mg/kg D5-D48 PO QD + Anti-IgG2a 10 mg/kg IP BIW, day 18 of treatment
  Tumor Volume: 1414 ± 243 mm^3
MC38_sgStk11 tumor; Gr 6: Compound I 150 mg/kg D0-D4, 100 mg/kg D5-D48 PO QD + Anti-IgG2a 10 mg/kg IP BIW, day 21 of treatment
  Tumor Volume: 1728 ± 366 mm^3
MC38_sgStk11 tumor; Gr 6: Compound I 150 mg/kg D0-D4, 100 mg/kg D5-D48 PO QD + Anti-IgG2a 10 mg/kg IP BIW, day 23 of treatment
  Tumor Volume: 2198 ± 472 mm^3
MC38_sgStk11 tumor; Gr 6: Compound I 150 mg/kg D0-D4, 100 mg/kg D5-D48 PO QD + Anti-IgG2a 10 mg/kg IP BIW, day 25 of treatment
  Tumor Volume: 2054 ± 638 mm^3
MC38_sgStk11 tumor; Gr 6: Compound I 150 mg/kg D0-D4, 100 mg/kg D5-D48 PO QD + Anti-IgG2a 10 mg/kg IP BIW, day 28 of treatment
  Tumor Volume: 1705 ± 330 mm^3
MC38_sgStk11 tumor; Gr 6: Compound I 150 mg/kg D0-D4, 100 mg/kg D5-D48 PO QD + Anti-IgG2a 10 mg/kg IP BIW, day 30 of treatment
  Tumor Volume: 1840 ± 326 mm^3
MC38_sgStk11 tumor; Gr 6: Compound I 150 mg/kg D0-D4, 100 mg/kg D5-D48 PO QD + Anti-IgG2a 10 mg/kg IP BIW, day 32 of treatment
  Tumor Volume: 1949 ± 395 mm^3
MC38_sgStk11 tumor; Gr 6: Compound I 150 mg/kg D0-D4, 100 mg/kg D5-D48 PO QD + Anti-IgG2a 10 mg/kg IP BIW, day 34 of treatment
  Tumor Volume: 2089 ± 389 mm^3
CYP3A4
  CYP3A4: No signal
